Test system: LNCaP tumor-bearing mice
Assay: Ex vivo biodistribution in LNCaP tumor-bearing mice
Parameters: species or system mouse
Protocol: Imaging, biodistribution and radioligand therapy experiments were performed following previously published procedures using male NOD-scid IL2Rg^null (NSG) or NOD.Cg-Rag1^tm1MomIl2rg^tm1Wjl/SzJ (NRG) mice [10]-[12],[14]-[15]. The experiments were conducted according to the guidelines established by the Canadian Council on Animal Care and approved by Animal Ethics Committee of the University of British Columbia. The mice were briefly sedated by inhalation of 2% isoflurane in oxygen, and implanted subcutaneously with 1×10^7 LNCaP cells behind the left shoulder. The mice were imaged or used in biodistribution studies when the tumor grew to 5-8 mm in diameter over a period of 4-5 weeks.
For biodistribution studies, the mice were injected with the radioligand (2-4 MBq) as described above. For blocking, the mice were co-injected with nonradioactive DCFPyL (0.5 mg). At predetermined time points, the mice were sedated by isoflurane inhalation and euthanized by CO2 inhalation. Blood was withdrawn by cardiac puncture, and organs/tissues of interest were collected, weighed and counted using an automatic gamma counter (Tables S4-S7).

COc1ccc(CCCC(=O)NCC(=O)N[C@@H](CCCCNC(=O)CN2CCN(CC(=O)[O-])CCN(CC(=O)[O-])CCN(CC(=O)[O-])CC2)C(=O)NC[C@H]2CC[C@H](C(=O)N[C@@H](Cc3c4ccccc4cc4ccccc34)C(=O)NCCCC[C@H](NC(=O)N[C@@H](CSCC(=O)O)C(=O)O)C(=O)O)CC2)cc1.[177Lu+3] [[^177Lu]Lu-HTK04048]
Adrenal glands uptake (1 h post-injection): 4.43 ± 1.11 %ID/g
Blood uptake (1 h post-injection): 19.8 ± 3.38 %ID/g
Blood:Salivary gland uptake ratio (1 h post-injection): 6.78 ± 0.76
Bone uptake (1 h post-injection): 1.10 ± 0.16 %ID/g
Brain uptake (1 h post-injection): 0.29 ± 0.03 %ID/g
Fat uptake (1 h post-injection): 1.56 ± 0.45 %ID/g
Heart uptake (1 h post-injection): 4.74 ± 0.60 %ID/g
Intestines uptake (1 h post-injection): 1.38 ± 0.22 %ID/g
Kidneys uptake (1 h post-injection): 17.4 ± 4.32 %ID/g
Lacrimal glands uptake (1 h post-injection): 0.42 ± 0.12 %ID/g
Liver uptake (1 h post-injection): 3.94 ± 0.69 %ID/g
Lungs uptake (1 h post-injection): 9.52 ± 1.44 %ID/g
Muscle uptake (1 h post-injection): 1.54 ± 0.20 %ID/g
Pancreas uptake (1 h post-injection): 1.77 ± 0.17 %ID/g
Salivary glands uptake (1 h post-injection): 2.92 ± 0.36 %ID/g
Spleen uptake (1 h post-injection): 2.57 ± 0.48 %ID/g
Stomach uptake (1 h post-injection): 0.75 ± 0.11 %ID/g
Testes uptake (1 h post-injection): 2.60 ± 0.62 %ID/g
Thyroid uptake (1 h post-injection): 3.97 ± 0.47 %ID/g
Tumor uptake (1 h post-injection): 16.5 ± 5.48 %ID/g
Tumor:Blood uptake ratio (1 h post-injection): 0.84 ± 0.22
Tumor:Kidney uptake ratio (1 h post-injection): 0.99 ± 0.34
Tumor:Muscle uptake ratio (1 h post-injection): 10.7 ± 2.87
Tumor:Salivary gland uptake ratio (1 h post-injection): 5.64 ± 1.51
Adrenal glands uptake (4 h post-injection): 2.17 ± 0.21 %ID/g
Blood uptake (4 h post-injection): 11.7 ± 1.39 %ID/g
Blood:Salivary gland uptake ratio (4 h post-injection): 6.12 ± 0.58
Bone uptake (4 h post-injection): 0.69 ± 0.11 %ID/g
Brain uptake (4 h post-injection): 0.18 ± 0.01 %ID/g
Fat uptake (4 h post-injection): 0.94 ± 0.13 %ID/g
Heart uptake (4 h post-injection): 2.87 ± 0.30 %ID/g
Intestines uptake (4 h post-injection): 1.00 ± 0.08 %ID/g
Kidneys uptake (4 h post-injection): 12.5 ± 1.35 %ID/g
Lacrimal glands uptake (4 h post-injection): 0.54 ± 0.52 %ID/g
Liver uptake (4 h post-injection): 2.28 ± 0.46 %ID/g
Lungs uptake (4 h post-injection): 5.92 ± 0.79 %ID/g
Muscle uptake (4 h post-injection): 0.96 ± 0.09 %ID/g
Pancreas uptake (4 h post-injection): 1.15 ± 0.14 %ID/g
Salivary glands uptake (4 h post-injection): 1.91 ± 0.20 %ID/g
Spleen uptake (4 h post-injection): 1.96 ± 0.39 %ID/g
Stomach uptake (4 h post-injection): 0.71 ± 0.13 %ID/g
Testes uptake (4 h post-injection): 2.72 ± 0.34 %ID/g
Thyroid uptake (4 h post-injection): 2.68 ± 0.23 %ID/g
Tumor uptake (4 h post-injection): 39.4 ± 22.4 %ID/g
Tumor:Blood uptake ratio (4 h post-injection): 3.49 ± 2.31
Tumor:Kidney uptake ratio (4 h post-injection): 3.27 ± 2.16
Tumor:Muscle uptake ratio (4 h post-injection): 42.2 ± 27.3
Tumor:Salivary gland uptake ratio (4 h post-injection): 20.9 ± 11.9
Adrenal glands uptake (24 h post-injection): 0.67 ± 0.26 %ID/g
Blood uptake (24 h post-injection): 0.62 ± 0.16 %ID/g
Blood:Salivary gland uptake ratio (24 h post-injection): 1.61 ± 0.40
Bone uptake (24 h post-injection): 0.11 ± 0.02 %ID/g
Brain uptake (24 h post-injection): 0.03 ± 0.00 %ID/g
Fat uptake (24 h post-injection): 0.15 ± 0.05 %ID/g
Heart uptake (24 h post-injection): 0.34 ± 0.05 %ID/g
Intestines uptake (24 h post-injection): 0.46 ± 0.31 %ID/g
Kidneys uptake (24 h post-injection): 5.68 ± 1.28 %ID/g
Lacrimal glands uptake (24 h post-injection): 0.06 ± 0.01 %ID/g
Liver uptake (24 h post-injection): 0.77 ± 0.52 %ID/g
Lungs uptake (24 h post-injection): 1.05 ± 0.36 %ID/g
Muscle uptake (24 h post-injection): 0.11 ± 0.02 %ID/g
Pancreas uptake (24 h post-injection): 0.15 ± 0.03 %ID/g
Salivary glands uptake (24 h post-injection): 0.39 ± 0.08 %ID/g
Spleen uptake (24 h post-injection): 0.64 ± 0.10 %ID/g
Stomach uptake (24 h post-injection): 0.83 ± 0.66 %ID/g
Testes uptake (24 h post-injection): 0.67 ± 0.24 %ID/g
Thyroid uptake (24 h post-injection): 0.53 ± 0.07 %ID/g
Tumor uptake (24 h post-injection): 65.3 ± 19.6 %ID/g
Tumor:Blood uptake ratio (24 h post-injection): 113 ± 44.5
Tumor:Kidney uptake ratio (24 h post-injection): 11.5 ± 2.22
Tumor:Muscle uptake ratio (24 h post-injection): 594 ± 177
Tumor:Salivary gland uptake ratio (24 h post-injection): 175 ± 58.1
Adrenal glands uptake (72 h post-injection): 0.33 ± 0.06 %ID/g
Blood uptake (72 h post-injection): 0.08 ± 0.06 %ID/g
Blood:Salivary gland uptake ratio (72 h post-injection): 0.43 ± 0.28
Bone uptake (72 h post-injection): 0.06 ± 0.02 %ID/g
Brain uptake (72 h post-injection): 0.01 ± 0.00 %ID/g
Fat uptake (72 h post-injection): 0.07 ± 0.03 %ID/g
Heart uptake (72 h post-injection): 0.14 ± 0.03 %ID/g
Intestines uptake (72 h post-injection): 0.13 ± 0.08 %ID/g
Kidneys uptake (72 h post-injection): 2.19 ± 0.21 %ID/g
Lacrimal glands uptake (72 h post-injection): 0.01 ± 0.01 %ID/g
Liver uptake (72 h post-injection): 0.25 ± 0.02 %ID/g
Lungs uptake (72 h post-injection): 0.26 ± 0.08 %ID/g
Muscle uptake (72 h post-injection): 0.03 ± 0.01 %ID/g
Pancreas uptake (72 h post-injection): 0.06 ± 0.01 %ID/g
Salivary glands uptake (72 h post-injection): 0.18 ± 0.03 %ID/g
Spleen uptake (72 h post-injection): 0.54 ± 0.14 %ID/g
Stomach uptake (72 h post-injection): 0.20 ± 0.17 %ID/g
Testes uptake (72 h post-injection): 0.35 ± 0.05 %ID/g
Thyroid uptake (72 h post-injection): 0.28 ± 0.05 %ID/g
Tumor uptake (72 h post-injection): 64.1 ± 15.0 %ID/g
Tumor:Blood uptake ratio (72 h post-injection): 1493 ± 1213
Tumor:Kidney uptake ratio (72 h post-injection): 29.2 ± 6.22
Tumor:Muscle uptake ratio (72 h post-injection): 2043 ± 734
Tumor:Salivary gland uptake ratio (72 h post-injection): 362 ± 111
Adrenal glands uptake (120 h post-injection): 0.30 ± 0.14 %ID/g
Blood uptake (120 h post-injection): 0.04 ± 0.03 %ID/g
Blood:Salivary gland uptake ratio (120 h post-injection): 0.22 ± 0.13
Bone uptake (120 h post-injection): 0.05 ± 0.02 %ID/g
Brain uptake (120 h post-injection): 0.01 ± 0.00 %ID/g
Fat uptake (120 h post-injection): 0.05 ± 0.03 %ID/g
Heart uptake (120 h post-injection): 0.08 ± 0.02 %ID/g
Intestines uptake (120 h post-injection): 0.10 ± 0.10 %ID/g
Kidneys uptake (120 h post-injection): 1.43 ± 0.48 %ID/g
Lacrimal glands uptake (120 h post-injection): 0.01 ± 0.01 %ID/g
Liver uptake (120 h post-injection): 0.18 ± 0.07 %ID/g
Lungs uptake (120 h post-injection): 0.12 ± 0.05 %ID/g
Muscle uptake (120 h post-injection): 0.02 ± 0.01 %ID/g
Pancreas uptake (120 h post-injection): 0.05 ± 0.03 %ID/g
Salivary glands uptake (120 h post-injection): 0.13 ± 0.03 %ID/g
Spleen uptake (120 h post-injection): 0.55 ± 0.27 %ID/g
Stomach uptake (120 h post-injection): 0.04 ± 0.02 %ID/g
Testes uptake (120 h post-injection): 0.22 ± 0.09 %ID/g
Thyroid uptake (120 h post-injection): 0.17 ± 0.02 %ID/g
Tumor uptake (120 h post-injection): 65.7 ± 19.1 %ID/g
Tumor:Blood uptake ratio (120 h post-injection): 4346 ± 4168
Tumor:Kidney uptake ratio (120 h post-injection): 52.1 ± 16.3
Tumor:Muscle uptake ratio (120 h post-injection): 3358 ± 2122
Tumor:Salivary gland uptake ratio (120 h post-injection): 604 ± 226
Peaked tumor uptake relative to ^68Ga-labeled non-albumin-binder analog (mouse, in vivo): ~ 3 fold
Peaked average tumor uptake (peak over 1-120 h post-injection): ~ 60 %ID/g
Time of peak tumor uptake (post-injection, listed as 177Lu-labeled HTK04048): 4 to 24 h
